Values quoted from earlier work as cited in patent EP2698169A1, “A contrast agent-binding polypeptide and use thereof” (Universität Duisburg-Essen, priority 2012, dated 2014).

Settings: literature [26]; conventional small molecular contrast agents

## O=C([O-])CN1CCN(CC(=O)[O-])CCN(CC(=O)O)CCN(CC(=O)[O-])CC1.[Gd+3] [DOTA-Gd^3+]
  Relaxivities: below 10 s^-1mM^-1

## CNC[C@H](O)[C@@H](O)[C@H](O)[C@H](O)CO.CNC[C@H](O)[C@@H](O)[C@H](O)[C@H](O)CO.O=C([O-])CN(CCN(CC(=O)[O-])CC(=O)O)CCN(CC(=O)[O-])CC(=O)O.[Gd+3] [DTPA-Gd^3+, gadopentetic acid]
  Relaxivities: below 10 s^-1mM^-1
